Measured values taken from patent US20200354426A1 (MEDIMMUNE LIMITED, priority 2016, published 2020).
Numbered stars: 1 amine (or outer) side, 2 acyl side, 3 side chain; on linkers, the order of the positions; unused ones are H or OH. Side chains are listed from the residue outwards. Peptide text beside a SMILES is read from it. * marks the point of attachment. γGlu = O=C(O)[C@H](CCC(=O)[*:2])N[*:1]; Palmitoyl = CCCCCCCCCCCCCCCC(=O)*; Ahx = NCCCCCC(=O)O

Key:
Assay in all cases: cAMP activity assay in assay medium (assay 1)
Assay type in all cases: cell-based
Human GlucR = biological target: T1, Human GlucR (Homo sapiens, UniProt P47871); settings: assay medium; Table 4; read-out: hGlucR EC50
T1 construct: expressed in transfected cells
T1 sequence (P47871 26-477): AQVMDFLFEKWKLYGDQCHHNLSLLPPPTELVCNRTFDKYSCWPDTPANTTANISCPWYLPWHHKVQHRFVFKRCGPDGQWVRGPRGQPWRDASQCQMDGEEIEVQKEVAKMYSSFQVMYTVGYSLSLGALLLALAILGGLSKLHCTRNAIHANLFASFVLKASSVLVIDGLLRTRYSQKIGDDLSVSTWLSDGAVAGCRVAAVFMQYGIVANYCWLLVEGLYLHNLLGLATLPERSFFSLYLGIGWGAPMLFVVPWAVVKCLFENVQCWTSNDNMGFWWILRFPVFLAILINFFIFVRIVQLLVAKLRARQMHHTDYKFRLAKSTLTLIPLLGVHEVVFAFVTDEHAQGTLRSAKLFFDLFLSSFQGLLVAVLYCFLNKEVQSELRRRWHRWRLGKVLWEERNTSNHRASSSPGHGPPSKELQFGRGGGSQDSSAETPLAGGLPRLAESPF
Excerpt: (§1) Biological Activity of Peptides in Cell-Based cAMP Activity Assay (Assay 1):
(§2) All sample dilutions were made in duplicate.

Human GIPr = biological target: T2, Human GIPr (Homo sapiens, UniProt P48546); settings: assay medium; Table 4; read-out: hGIPR EC50
T2 construct: expressed in transfected cells
T2 sequence (P48546 22-466): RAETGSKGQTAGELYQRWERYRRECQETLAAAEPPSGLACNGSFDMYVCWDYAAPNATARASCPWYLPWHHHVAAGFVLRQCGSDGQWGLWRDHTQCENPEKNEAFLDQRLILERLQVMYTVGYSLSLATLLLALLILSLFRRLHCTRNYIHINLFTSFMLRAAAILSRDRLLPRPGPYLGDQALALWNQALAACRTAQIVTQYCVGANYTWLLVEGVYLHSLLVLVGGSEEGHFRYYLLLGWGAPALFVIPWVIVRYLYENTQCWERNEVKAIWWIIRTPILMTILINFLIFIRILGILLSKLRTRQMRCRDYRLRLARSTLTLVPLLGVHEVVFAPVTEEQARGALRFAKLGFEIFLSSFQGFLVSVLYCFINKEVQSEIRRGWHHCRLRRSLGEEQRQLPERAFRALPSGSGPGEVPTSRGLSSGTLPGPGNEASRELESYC
Excerpt: as §1, §2

Human GLP1R = Human GLP1R (Homo sapiens, UniProt P43220); design: expressed in transfected cells; settings: assay medium; Table 4; read-out: hGLP1R EC50
Human GLP1R, sequence (P43220 24-463): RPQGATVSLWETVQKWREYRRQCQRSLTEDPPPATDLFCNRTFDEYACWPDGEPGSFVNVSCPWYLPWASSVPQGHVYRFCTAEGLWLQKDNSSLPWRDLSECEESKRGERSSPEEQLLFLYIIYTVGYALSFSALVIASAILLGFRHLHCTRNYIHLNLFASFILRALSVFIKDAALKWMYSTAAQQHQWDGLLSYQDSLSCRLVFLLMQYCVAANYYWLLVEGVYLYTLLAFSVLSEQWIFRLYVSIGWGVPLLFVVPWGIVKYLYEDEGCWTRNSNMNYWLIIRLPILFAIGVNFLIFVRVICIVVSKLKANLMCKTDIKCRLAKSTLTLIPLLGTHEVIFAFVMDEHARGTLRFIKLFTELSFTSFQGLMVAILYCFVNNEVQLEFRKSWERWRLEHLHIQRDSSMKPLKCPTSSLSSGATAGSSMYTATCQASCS
Excerpt: as §1, §2

Row | Structure (SMILES) | EC50 (Human GlucR) [nM] | EC50 (Human GIPr) [nM] | EC50 (Human GLP1R) [nM]
1 | CCCCCCCCCCCCCCCC(=O)N[C@@H](CCC(=O)NCCCC[C@H](NC(=O)[C@H](CC(=O)O)NC(=O)[C@H](CO)NC(=O)[C@@H](NC(=O)[C@H](Cc1ccccc1)NC(=O)[C@@H](NC(=O)CNC(=O)[C@H](CCC(N)=O)NC(=O)[C@H](CO)NC(=O)[C@@H](N)Cc1c[nH]cn1)[C@@H](C)O)[C@@H](C)O)C(=O)N[C@@H](CO)C(=O)N[C@@H](CCCCN)C(=O)N[C@@H](Cc1ccc(O)cc1)C(=O)N[C@@H](CC(C)C)C(=O)N[C@@H](CC(=O)O)C(=O)N[C@@H](CO)C(=O)N[C@@H](CCCNC(=N)N)C(=O)N[C@@H](CCCNC(=N)N)C(=O)N[C@@H](C)C(=O)N[C@@H](CCC(N)=O)C(=O)N[C@@H](CC(=O)O)C(=O)N[C@@H](Cc1ccccc1)C(=O)N[C@H](C(=O)N[C@@H](CCC(N)=O)C(=O)N[C@@H](Cc1c[nH]c2ccccc12)C(=O)N[C@@H](CC(C)C)C(=O)N[C@H](C(=O)N[C@@H](C)C(=O)NCC(=O)NCC(N)=O)C(C)C)C(C)C)C(=O)O [g715] (H-HSQGTFTSDK([γGlu-Palmitoyl])SKYLDSRRAQDFVQWLVAGG-NH2; N-terminus assumed) | 0.00253 | 0.998 | 0.0204
2 | CCCCCCCCCCCCCCCC(=O)N[C@@H](CCC(=O)NCCCC[C@H](NC(=O)[C@H](Cc1ccc(O)cc1)NC(=O)[C@H](CC(=O)O)NC(=O)[C@H](CO)NC(=O)[C@@H](NC(=O)[C@H](Cc1ccccc1)NC(=O)[C@@H](NC(=O)CNC(=O)[C@H](CCC(N)=O)NC(=O)[C@H](CO)NC(=O)[C@@H](N)Cc1c[nH]cn1)[C@@H](C)O)[C@@H](C)O)C(=O)N[C@@H](CCCCN)C(=O)N[C@@H](Cc1ccc(O)cc1)C(=O)N[C@@H](CC(C)C)C(=O)N[C@@H](CC(=O)O)C(=O)N[C@@H](CO)C(=O)N[C@@H](CCCNC(=N)N)C(=O)N[C@@H](CCCNC(=N)N)C(=O)N[C@@H](C)C(=O)N[C@@H](CCC(N)=O)C(=O)N[C@@H](CC(=O)O)C(=O)N[C@@H](Cc1ccccc1)C(=O)N[C@H](C(=O)N[C@@H](CCC(N)=O)C(=O)N[C@@H](Cc1c[nH]c2ccccc12)C(=O)N[C@@H](CC(C)C)C(=O)N[C@H](C(=O)N[C@@H](C)C(=O)NCC(=O)NCC(N)=O)C(C)C)C(C)C)C(=O)O [g716] (H-HSQGTFTSDYK([γGlu-Palmitoyl])KYLDSRRAQDFVQWLVAGG-NH2; N-terminus assumed) | 2.46 | 11.8 | 12.9
3 | CCCCCCCCCCCCCCCC(=O)N[C@@H](CCC(=O)NCCCC[C@H](NC(=O)[C@H](CO)NC(=O)[C@H](CC(=O)O)NC(=O)[C@H](CC(C)C)NC(=O)[C@H](Cc1ccc(O)cc1)NC(=O)[C@H](CCC(=O)O)NC(=O)[C@H](CO)NC(=O)[C@H](Cc1ccc(O)cc1)NC(=O)[C@H](CC(=O)O)NC(=O)[C@H](CO)NC(=O)[C@@H](NC(=O)[C@H](Cc1ccccc1)NC(=O)[C@@H](NC(=O)CNC(=O)[C@H](CCC(N)=O)NC(=O)CNC(=O)[C@@H](N)Cc1c[nH]cn1)[C@@H](C)O)[C@@H](C)O)C(=O)N[C@@H](CCCNC(=N)N)C(=O)N[C@@H](C)C(=O)N[C@@H](CCCNC(=N)N)C(=O)N[C@@H](CC(=O)O)C(=O)N[C@@H](Cc1ccccc1)C(=O)N[C@H](C(=O)N[C@@H](CCC(=O)O)C(=O)N[C@@H](Cc1c[nH]c2ccccc12)C(=O)N[C@@H](CC(C)C)C(=O)N[C@@H](CCC(=O)O)C(=O)N[C@@H](CCCNC(=N)N)C(=O)NCC(=O)NCC(N)=O)C(C)C)C(=O)O [g723] | 8.95 | 761 | 0.33
4 | CCCCCCCCCCCCCCCC(=O)NCCCCCC(=O)NCCCC[C@H](NC(=O)[C@H](CO)NC(=O)[C@H](CC(=O)O)NC(=O)[C@H](CC(C)C)NC(=O)[C@H](Cc1ccc(O)cc1)NC(=O)[C@H](CCC(=O)O)NC(=O)[C@H](CO)NC(=O)[C@H](Cc1ccc(O)cc1)NC(=O)[C@H](CC(=O)O)NC(=O)[C@H](CO)NC(=O)[C@@H](NC(=O)[C@H](Cc1ccccc1)NC(=O)[C@@H](NC(=O)CNC(=O)[C@H](CCC(=O)O)NC(=O)CNC(=O)[C@@H](N)Cc1c[nH]cn1)[C@@H](C)O)[C@@H](C)O)C(=O)N[C@@H](CCCNC(=N)N)C(=O)N[C@@H](C)C(=O)N[C@@H](CCCNC(=N)N)C(=O)N[C@@H](CC(=O)O)C(=O)N[C@@H](Cc1ccccc1)C(=O)N[C@H](C(=O)N[C@@H](C)C(=O)N[C@@H](Cc1c[nH]c2ccccc12)C(=O)N[C@@H](CC(C)C)C(=O)N[C@@H](CCC(=O)O)C(=O)N[C@@H](CCCNC(=N)N)C(=O)NCC(=O)NCC(N)=O)C(C)C [g724] (H-HGEGTFTSDYSEYLDSK([Ahx-Palmitoyl])RARDFVAWLERGG-NH2; N-terminus assumed) | 30.9 | 933 | 0.019

Further compounds by falling EC50 (Human GlucR), results first:

Row | EC50 (Human GlucR) [nM] | EC50 (Human GIPr) [nM] | EC50 (Human GLP1R) [nM] | Structure (SMILES)
5 | 59.9 | 1480 | 0.0252 | CCCCCCCCCCCCCCCC(=O)NCCCCCC(=O)NCCCC[C@H](NC(=O)[C@H](CO)NC(=O)[C@H](CC(=O)O)NC(=O)[C@H](CC(C)C)NC(=O)[C@H](Cc1ccc(O)cc1)NC(=O)[C@H](CCC(=O)O)NC(=O)[C@H](CO)NC(=O)[C@H](Cc1ccc(O)cc1)NC(=O)[C@H](CC(=O)O)NC(=O)[C@H](CO)NC(=O)[C@@H](NC(=O)[C@H](Cc1ccccc1)NC(=O)[C@@H](NC(=O)CNC(=O)[C@H](CCC(=O)O)NC(=O)CNC(=O)[C@@H](N)Cc1c[nH]cn1)[C@@H](C)O)[C@@H](C)O)C(=O)N[C@@H](CCCNC(=N)N)C(=O)N[C@@H](C)C(=O)N[C@@H](C)C(=O)N[C@@H](CC(=O)O)C(=O)N[C@@H](Cc1ccccc1)C(=O)N[C@H](C(=O)N[C@@H](C)C(=O)N[C@@H](Cc1c[nH]c2ccccc12)C(=O)N[C@@H](CC(C)C)C(=O)N[C@@H](CCC(=O)O)C(=O)N[C@@H](CCCNC(=N)N)C(=O)NCC(=O)NCC(N)=O)C(C)C [g725] (H-HGEGTFTSDYSEYLDSK([Ahx-Palmitoyl])RAADFVAWLERGG-NH2; N-terminus assumed)
6 | 11.1 | 1670 | 0.426 | CCCCCCCCCCCCCCCC(=O)N[C@@H](CCC(=O)NCCCC[C@H](NC(=O)[C@H](CO)NC(=O)[C@H](CC(=O)O)NC(=O)[C@H](CC(C)C)NC(=O)[C@H](Cc1ccc(O)cc1)NC(=O)[C@H](CCC(=O)O)NC(=O)[C@H](CO)NC(=O)[C@H](Cc1ccc(O)cc1)NC(=O)[C@H](CC(=O)O)NC(=O)[C@H](CO)NC(=O)[C@@H](NC(=O)[C@H](Cc1ccccc1)NC(=O)[C@@H](NC(=O)CNC(=O)[C@H](CCC(N)=O)NC(=O)CNC(=O)[C@@H](N)Cc1c[nH]cn1)[C@@H](C)O)[C@@H](C)O)C(=O)N[C@@H](CCCNC(=N)N)C(=O)N[C@@H](C)C(=O)N[C@@H](C)C(=O)N[C@@H](CC(=O)O)C(=O)N[C@@H](Cc1ccccc1)C(=O)N[C@H](C(=O)N[C@@H](C)C(=O)N[C@@H](Cc1c[nH]c2ccccc12)C(=O)N[C@@H](CC(C)C)C(=O)N[C@@H](CCC(=O)O)C(=O)N[C@@H](CCCNC(=N)N)C(=O)NCC(=O)NCC(N)=O)C(C)C)C(=O)O [g722]
7 | 3.23 | 979 | 0.411 | CCCCCCCCCCCCCCCC(=O)N[C@@H](CCC(=O)NCCCC[C@H](NC(=O)[C@H](CO)NC(=O)[C@H](CC(=O)O)NC(=O)[C@H](CC(C)C)NC(=O)[C@H](Cc1ccc(O)cc1)NC(=O)[C@H](CCC(=O)O)NC(=O)[C@H](CO)NC(=O)[C@H](Cc1ccc(O)cc1)NC(=O)[C@H](CC(=O)O)NC(=O)[C@H](CO)NC(=O)[C@@H](NC(=O)[C@H](Cc1ccccc1)NC(=O)[C@@H](NC(=O)CNC(=O)[C@H](CCC(N)=O)NC(=O)CNC(=O)[C@@H](N)Cc1c[nH]cn1)[C@@H](C)O)[C@@H](C)O)C(=O)N[C@@H](CCCNC(=N)N)C(=O)N[C@@H](C)C(=O)N[C@@H](CCCNC(=N)N)C(=O)N[C@@H](CC(=O)O)C(=O)N[C@@H](Cc1ccccc1)C(=O)N[C@H](C(=O)N[C@@H](C)C(=O)N[C@@H](Cc1c[nH]c2ccccc12)C(=O)N[C@@H](CC(C)C)C(=O)N[C@@H](CCC(=O)O)C(=O)N[C@@H](CCCNC(=N)N)C(=O)NCC(=O)NCC(N)=O)C(C)C)C(=O)O [g721] (H-HGQGTFTSDYSEYLDSK([γGlu-Palmitoyl])RARDFVAWLERGG-NH2; N-terminus assumed)
8 | 0.164 | 146 | 0.0151 | CCCCCCCCCCCCCCCC(=O)NCCCCCC(=O)NCCCC[C@H](NC(=O)[C@H](CO)NC(=O)[C@H](CC(=O)O)NC(=O)[C@H](CC(C)C)NC(=O)[C@H](Cc1ccc(O)cc1)NC(=O)[C@H](CCC(=O)O)NC(=O)[C@H](CO)NC(=O)[C@H](Cc1ccc(O)cc1)NC(=O)[C@H](CC(=O)O)NC(=O)[C@H](CO)NC(=O)[C@@H](NC(=O)[C@H](Cc1ccccc1)NC(=O)[C@@H](NC(=O)CNC(=O)[C@H](CCC(N)=O)NC(=O)CNC(=O)[C@@H](N)Cc1c[nH]cn1)[C@@H](C)O)[C@@H](C)O)C(=O)N[C@@H](CCCNC(=N)N)C(=O)N[C@@H](C)C(=O)N[C@@H](CCCNC(=N)N)C(=O)N[C@@H](CC(=O)O)C(=O)N[C@@H](Cc1ccccc1)C(=O)N[C@H](C(=O)N[C@@H](C)C(=O)N[C@@H](Cc1c[nH]c2ccccc12)C(=O)N[C@@H](CC(C)C)C(=O)N[C@@H](CCC(=O)O)C(=O)N[C@@H](CCCNC(=N)N)C(=O)NCC(=O)NCC(N)=O)C(C)C [g684] (H-HGQGTFTSDYSEYLDSK([Ahx-Palmitoyl])RARDFVAWLERGG-NH2; N-terminus assumed)
